Measurements taken from US6528274B1, “Method for the production of sialylated oligosaccharides” (priority 1998, dated 2003).

What was measured:
[1] = molecular target: viral α2,3-sialyltransferase (Myxoma virus, UniProt Q9YJT3); type: biochemical; settings: LacNAc-O-gr = 100; for Relative Rate (2.7 mM): acceptor 2.7 mM, relative rate of sialic acid transfer, 37° C., pH 6.1
Experimental: Acceptor (54 nmol), CMP-NANA (40 nmol), and CMP-^3H-NANA (150,000-180,000 dpm) were added to a mixture of cell lysate (16 μL), water (3 μL) and 1 μL of assay buffer (250 mM MES, 0.5% Triton CF54, pH 7.0) in a 0.5 mL microfuge tube. Reaction mixtures were incubated at 37° C., diluted with water to 200 μL and loaded onto a C18 Sep-Pak reverse-phase cartridge which had been pre-equilibrated with 20 mL of MeOH and 20 mL of water. The cartridge was washed with 50 mL of water and the product eluted with 4 mL of MeOH into a scintillation vial. The radioactivity of the MeOH eluates were quantitated by liquid scintillation in 10 mL of EcoLite (+) scintillation cocktail (ICN, Montreal, Quebec, Canada) in a Beckman liquid scintillation counter (LS1801).
Acceptor (54 nmol), CMP-NANA (40 nmol), and CMP-^3H-NANA (150,000-180,000 dpm) were added to a mixture of cell lysate (16 μL), water (3 μL) and assay buffer (250 mM MES, 0.5% Triton CF54, pH 6.1) in a 0.5 mL microfuge tube.

[2] = test system: myxoma viral α2,3-sialyl transferase; assay: Transfer of sialic acid (CMP-3H-NANA) to Lewis a and Lewis x oligosaccharide acceptors by viral cell lysate, pH 7.0; type: biochemical, myxoma virus; settings: acceptor 54 nmol, 37° C., duplicate experiments
Experimental: The myxoma viral α2,3-sialyl transferase cell lysate was prepared by a method similar to that set forth in International Patent Application Publication No. WO97/18302^65, which is incorporated herein by reference.
Ten T180 flasks of confluent layers of European rabbit kidney cell (RK13) cells were infected with Brazilian myxoma virus strain, Lausanne (Lu) (ATCC VR-115) isolated Campinas, Brazil, 1949 and Uriarra (Ur) isolated Australian Capital Territory, 1953 (a derivative of Moses strain (ATCC VR-116)). The cells were kept at 37° C. for 24 hours. Twenty-four hours post infection, the cells were detached by scraping and washed with PBS. Cell lysates were prepared by suspension in 20 mL of extraction buffer (50 mM MES, pH 6.1, 0.5% Triton-X100, 100 mM NaCl, 1.5 mM MgCl2, 0.1 mM PMSF, […] aprotinin) at 4° C., for 45 minutes. The lysate was clarified by centrifugation at 2,000 g at 4° C. for 15 minutes. […]
Acceptor (54 nmol), CMP-NANA (40 nmol), and CMP-^3H-NANA (150,000-180,000 dpm) were added to a mixture of cell lysate (16 μL), water (3 μL) and 1 μL of assay buffer (250 mM MES, 0.5% Triton CF54, pH 7.0) in a 0.5 mL microfuge tube. […] The radioactivity of the MeOH eluates were quantitated by liquid scintillation in 10 mL of EcoLite (+) scintillation cocktail (ICN, Montreal, Quebec, Canada) in a Beckman liquid scintillation counter (LS1801). […]

Structure (SMILES) | Relative Rate (2.7 mM) [1] | Relative Vmax [1] | dpm (radioactive transfer to acceptor) ([2]; Incubation time 170 min., total CMP-NANA 176174) | dpm (radioactive transfer to acceptor) ([2]; Incubation time 90 min., total CMP-NANA 152644)
CCCCCCCCO[C@@H]1O[C@H](CO)[C@@H](O[C@@H]2O[C@H](CO)[C@H](O)[C@](C)(O)[C@H]2O)[C@H](O)[C@H]1O [3′-C-methyl-lactose-octyl] | 4.1 |  |  | 
CCCCCCCCO[C@@H]1O[C@H](CO)[C@@H](O[C@@H]2O[C@H](CO)[C@](C)(O)[C@H](O)[C@H]2O)[C@H](O)[C@H]1O [4′-C-methyl-lactose-octyl] | 20 |  |  | 
CCCCCCCCO[C@@H]1O[C@H](CO)[C@@H](O[C@@H]2O[C@H](C(C)(C)O)[C@H](O)[C@H](O)[C@H]2O)[C@H](O)[C@H]1NC(C)=O [6′,6′-C-dimethyl-LacNAc-O-octyl] | 17 |  |  | 
OC[C@H]1O[C@H](Oc2ccccc2)[C@H](O)[C@@H](O)[C@H]1O [Gal-O-phenyl] | <1 |  |  | 
COC(=O)CCCCCCCCOC1OC(CO)C(OC2OC(CO)C(O)C(OC3OC(CO)C(O)C(O)C3O)C2O)C(O)C1NC(C)=O (stereo not drawn) [Galα(1→3)-lacNAc-O-gr] | 18 |  |  | 
COC(=O)CCCCCCCCO[C@@H]1O[C@H](CO)[C@@H](O[C@@H]2O[C@H](CO)[C@H](O[C@H]3O[C@H](CO)[C@H](O)[C@H](O)[C@H]3O)[C@H](O)[C@H]2O)[C@H](O)[C@H]1O [Galα(1→4)-lactose-O-gr] | 12 | 17 |  | 
CCCCCCCCO[C@@H]1O[C@H](CO)[C@@H](O)[C@H](O)[C@H]1O [Glc-O-octyl] | <1 |  |  | 
COC(=O)CCCCCCCCOC1OC(CO)C(O)C(O)C1NC(C)=O (stereo not drawn) [GlcNAc-O-gr] | <1 |  |  | 
CC(=O)N[C@H]1C(O)O[C@H](CO)[C@@H](O[C@@H]2O[C@H](CO)[C@H](O)[C@H](O)[C@H]2O)[C@@H]1O (stereo partly drawn) [LacNAc-OH] | 171 |  |  | 
COC(=O)CCCCCCCCO[C@@H]1O[C@H](CO)[C@@H](O[C@@H]2O[C@H](CO)[C@H](O)[C@H](O)[C@H]2O)[C@H](O)[C@H]1NC(C)=O [LacNAc—O-gr] | 100 | 100 |  | 
COC(=O)CCCCCCCCO[C@@H]1O[C@H](CO)[C@@H](O[C@@H]2O[C@H](CO)[C@H](O)[C@H](O)[C@H]2O)[C@H](O)[C@H]1O [Lactose-O-gr] | 90 | 112 |  | 
COC(=O)CCCCCCCCO[C@@H]1O[C@H](CO)[C@@H](O[C@@H]2O[C@@H](C)[C@@H](O)[C@@H](O)[C@@H]2O)[C@H](O[C@@H]2O[C@H](CO)[C@H](O)[C@H](O)[C@H]2O)[C@H]1NC(C)=O [Le^a-gr, 8-methoxycarbonyloctyl β-D-galactopyranosyl-(1→3) [α-L-fucopyranosyl-(1→4)]-β-D-2-acetamide-2-deoxy-glucopyranoside] | 50 | 42 | 4161/4045 | 
COC(=O)CCCCCCCCO[C@@H]1O[C@H](CO)[C@@H](O)[C@H](O[C@@H]2O[C@H](CO)[C@H](O)[C@H](O)[C@H]2O)[C@H]1NC(C)=O [Le^c-O-gr] | 79 | 90 |  | 
COC(=O)CCCCCCCCO[C@@H]1O[C@H](CO)[C@@H](O[C@@H]2O[C@H](CO)[C@H](O)[C@H](O)[C@H]2O)[C@H](O[C@@H]2O[C@@H](C)[C@@H](O)[C@@H](O)[C@@H]2O)[C@H]1NC(C)=O [Le^x-gr, 8-methoxycarbonyloctyl α-L-fucopyranosyl-(1→3)-[β-D-galactopyranosyl-(1→4)]-β-D-2-acetamide-2-deoxy-glucopyranoside] | 21 | 30 |  | 1330/1130
COC(=O)CCCCCCCCO[C@H]1O[C@H](CO)[C@H](O)[C@H](O[C@@H]2O[C@H](CO)[C@H](O)[C@H](O)[C@H]2O)[C@H]1NC(C)=O [T-disaccharide-O-gr] | 64 | 51 |  | 
